Results reported in ChEMBL document CHEMBL1201862, “PubChem BioAssay data set” (2004).
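Exposure lasted 48 hours, with cells grown in 96-well plates and compounds tested at five concentrations. GI50 is the concentration that inhibits growth by half.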 Active and inactive are the calls of the source. No stated cut-off is given here; in the data, active = GI50 up to about 1.1 µM and inactive = higher.

How the values were obtained:
Test in all cases: inhibition of tumour cell growth, NCI panel, 48 h
EKVX = test system: EKVX
PC-3 = test system: PC-3
M14 = test system: M14
HOP-92 = test system: HOP-92
T47D = test system: T47D
RXF 393 = test system: RXF 393
Hs-578T = test system: Hs-578T
SNB-75 = test system: SNB-75
CCRF-CEM = test system: CCRF-CEM
Malme-3M = test system: Malme-3M
SW-620 = test system: SW-620
A549 = test system: A549
MDA-MB-231 = test system: MDA-MB-231
RPMI-8226 = test system: RPMI-8226
SNB-19 = test system: SNB-19
NCI-H522 = test system: NCI-H522
SR = test system: SR
HCT-116 = test system: HCT-116
DU-145 = test system: DU-145

SMILES: C[C@]1(O)CC[C@H]2[C@@H]3CCc4cc(O)ccc4[C@H]3CC[C@@]21C
- GI50 (EKVX): 1.32 µM (inactive)
- GI50 (PC-3): 1.87 µM (inactive)
- GI50 (M14): 1.18 µM (inactive)
- GI50 (HOP-92): 6.95 µM (inactive)
- GI50 (T47D): 38.5 µM (inactive)
- GI50 (RXF 393): 0.889 µM (active)
- GI50 (Hs-578T): 1.19 µM (inactive)
- GI50 (SNB-75): > 100 µM (inactive)
- GI50 (CCRF-CEM): 2.37 µM (inactive)
- GI50 (Malme-3M): 0.353 µM (active)
- GI50 (SW-620): 0.568 µM (active)
- GI50 (A549): 3.94 µM (inactive)
- GI50 (MDA-MB-231): 7.23 µM (inactive)
- GI50 (RPMI-8226): 0.687 µM (active)
- GI50 (SNB-19): 92.3 µM (inactive)
- GI50 (NCI-H522): 0.991 µM (active)
- GI50 (SR): 0.21 µM (active)

SMILES: COC(=O)C1=C(C(=O)OC)SC2(S1)C1=C(CCCC1)SC(C(=O)OC)=C2C(=O)OC
- GI50 (EKVX): 13.3 µM (inactive)
- GI50 (PC-3): 5.02 µM (inactive)
- GI50 (M14): 16.9 µM (inactive)
- GI50 (HOP-92): 7.82 µM (inactive)
- GI50 (T47D): 2.54 µM (inactive)
- GI50 (RXF 393): 2.33 µM (inactive)
- GI50 (Hs-578T): 15.9 µM (inactive)
- GI50 (CCRF-CEM): 1.7 µM (inactive)
- GI50 (Malme-3M): 11.4 µM (inactive)
- GI50 (SW-620): 2.09 µM (inactive)
- GI50 (A549): 14.6 µM (inactive)
- GI50 (HCT-116): 1.52 µM (inactive)
- GI50 (MDA-MB-231): 15.8 µM (inactive)
- GI50 (DU-145): 1.64 µM (inactive)
- GI50 (RPMI-8226): 0.586 µM (active)
- GI50 (SNB-19): 14.5 µM (inactive)
- GI50 (NCI-H522): 1.72 µM (inactive)

SMILES: C=CC(O)(CBr)CCC(Br)C(=C)C (stereo not given)
- GI50 (EKVX): > 10 µM (inactive)
- GI50 (PC-3): > 10 µM (inactive)
- GI50 (M14): > 10 µM (inactive)
- GI50 (T47D): > 10 µM (inactive)
- GI50 (RXF 393): > 10 µM (inactive)
- GI50 (Hs-578T): > 10 µM (inactive)
- GI50 (SNB-75): > 10 µM (inactive)
- GI50 (CCRF-CEM): > 10 µM (inactive)
- GI50 (Malme-3M): > 10 µM (inactive)
- GI50 (SW-620): > 10 µM (inactive)
- GI50 (A549): > 10 µM (inactive)
- GI50 (HCT-116): > 10 µM (inactive)
- GI50 (MDA-MB-231): > 10 µM (inactive)
- GI50 (DU-145): > 10 µM (inactive)
- GI50 (RPMI-8226): > 10 µM (inactive)
- GI50 (SNB-19): > 10 µM (inactive)
- GI50 (NCI-H522): > 10 µM (inactive)

SMILES: Cc1ccc(S(=O)(=O)N2CCc3cc(O)c([N+](=O)[O-])cc32)cc1
- GI50 (PC-3): > 100 µM (inactive)
- GI50 (M14): > 100 µM (inactive)
- GI50 (T47D): > 100 µM (inactive)
- GI50 (RXF 393): > 100 µM (inactive)
- GI50 (Hs-578T): > 100 µM (inactive)
- GI50 (SNB-75): > 100 µM (inactive)
- GI50 (CCRF-CEM): > 100 µM (inactive)
- GI50 (Malme-3M): > 100 µM (inactive)
- GI50 (SW-620): > 100 µM (inactive)
- GI50 (A549): > 100 µM (inactive)
- GI50 (HCT-116): > 100 µM (inactive)
- GI50 (MDA-MB-231): > 100 µM (inactive)
- GI50 (DU-145): > 100 µM (inactive)
- GI50 (SNB-19): > 100 µM (inactive)
- GI50 (NCI-H522): > 100 µM (inactive)

SMILES: CC1=NN=C(N)N/C1=C/C(Sc1ccc(Cl)cc1)c1cccs1 (stereo not given)
- GI50 (EKVX): 14.4 µM (inactive)
- GI50 (PC-3): 12.8 µM (inactive)
- GI50 (M14): 13.4 µM (inactive)
- GI50 (HOP-92): 28.1 µM (inactive)
- GI50 (T47D): 22 µM (inactive)
- GI50 (RXF 393): 17.4 µM (inactive)
- GI50 (Hs-578T): 17 µM (inactive)
- GI50 (CCRF-CEM): 3.52 µM (inactive)
- GI50 (Malme-3M): 13.1 µM (inactive)
- GI50 (SW-620): 15.9 µM (inactive)
- GI50 (A549): 10.3 µM (inactive)
- GI50 (HCT-116): 13.6 µM (inactive)
- GI50 (MDA-MB-231): > 10 µM (inactive)
- GI50 (DU-145): 23.1 µM (inactive)
- GI50 (RPMI-8226): 12.2 µM (inactive)
- GI50 (SNB-19): 16.7 µM (inactive)
- GI50 (NCI-H522): 4.65 µM (inactive)

SMILES: NS(=O)(=O)c1ccc(CNC(=S)NC(=O)Nc2ccc(Cl)c(Cl)c2)cc1
- GI50 (PC-3): 8.57 µM (inactive)
- GI50 (M14): 19 µM (inactive)
- GI50 (HOP-92): 17.7 µM (inactive)
- GI50 (T47D): 18.1 µM (inactive)
- GI50 (RXF 393): 27.9 µM (inactive)
- GI50 (Hs-578T): 17.1 µM (inactive)
- GI50 (SNB-75): 17.5 µM (inactive)
- GI50 (CCRF-CEM): 16.4 µM (inactive)
- GI50 (Malme-3M): 26.2 µM (inactive)
- GI50 (SW-620): 18.9 µM (inactive)
- GI50 (A549): 23.6 µM (inactive)
- GI50 (HCT-116): 17.5 µM (inactive)
- GI50 (MDA-MB-231): 10.6 µM (inactive)
- GI50 (DU-145): 33.3 µM (inactive)
- GI50 (RPMI-8226): 16 µM (inactive)
- GI50 (SNB-19): 19.8 µM (inactive)
- GI50 (NCI-H522): 16 µM (inactive)
